Test systems include OVCAR-8 ovarian; HS 578T breast; HOP-62 NSCLC; UO-31 renal; EKVX NSCLC; KM12 colon; SF-268 CNS; SN12C renal; SK-OV-3 ovarian; OVCAR-4 ovarian.
What all share (experiment): inhibition of tumour cell growth, NCI panel, 48 h

These results are taken from PubChem BioAssay (NCI).

Values joined by “and” are separate entries in the source; they are usually repeats but may differ in a detail not shown here. Equal values may be shown once.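 48-hour exposure; five concentrations; linearly interpolated endpoints. GI50: concentration for 50% inhibition of growth. TGI denotes the concentration required for complete inhibition of growth.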

As for `CC1NC(=O)C2=C1C(=O)NC(=O)C2` (stereo not drawn), the GI50 in the test with OVCAR-8 ovarian, in the test with HS 578T breast, in the test with HOP-62 NSCLC, with UO-31 renal, in the test on EKVX NSCLC and in the test with KM12 colon was more than 100 µM throughout. Further, the GI50 in the test with SF-268 CNS and in the test with SN12C renal was more than 100 µM each time. The TGI with OVCAR-8 ovarian, in the test on HS 578T breast, in the test with HOP-62 NSCLC, in the test on UO-31 renal, in the test with EKVX NSCLC and in the test on KM12 colon was more than 100 µM each time. The TGI in the test with SF-268 CNS and in the test on SN12C renal was more than 100 µM throughout.

Take `COc1ccc(/C=C2/SC(Nc3nc(-c4nc(NC5=NC(=O)/C(=C\c6ccc(OC)cc6)S5)sc4C)c(C)s3)=NC2=O)cc1`: the GI50 was 1.71 µM in the test on OVCAR-8 ovarian; 0.288 µM with HS 578T breast; 0.485 µM with HOP-62 NSCLC; 4.27 µM with UO-31 renal; 0.213 µM in the test with EKVX NSCLC; 0.196 µM with KM12 colon. Moreover, the GI50 was 2.79 µM with SF-268 CNS and 1.96 µM with SN12C renal. The TGI was 16.7 µM in the test on OVCAR-8 ovarian; 1.61 µM with HS 578T breast; 4.92 µM in the test on HOP-62 NSCLC; more than 32.2 µM with UO-31 renal; 2.43 µM with EKVX NSCLC; 5.77 µM in the test on KM12 colon. For the same molecule, the figures for the TGI in the test on SF-268 CNS and in the test with SN12C renal were more than 33.8 µM and 9.19 µM, respectively.

In the case of `Nc1ccccc1C(=O)CCC1C(=O)NC(=S)NC1=O`, the TGI with OVCAR-8 ovarian, in the test on SK-OV-3 ovarian, in the test with HS 578T breast, with OVCAR-4 ovarian, in the test on HOP-62 NSCLC and in the test on UO-31 renal was more than 100 µM throughout. Besides, the TGI in the test on EKVX NSCLC, in the test with KM12 colon and in the test with SF-268 CNS was more than 100 µM each time.

With `Cc1cn(Cc2ccc(C34CC5CC(CC(C5)C3)C4)c(O)c2)c(=O)[nH]c1=O`, the GI50 with SK-OV-3 ovarian was 19.2 µM; in the test on HS 578T breast it was 8.42 µM; in the test with OVCAR-4 ovarian, 12.9 µM; with HOP-62 NSCLC it was 12.9 µM; in the test with UO-31 renal, 11.6 µM; in the test on EKVX NSCLC, 8.21 µM. Moreover, the GI50 with KM12 colon is 11.4 µM; in the test with SF-268 CNS, 12.7 µM; in the test on SN12C renal, 12.3 µM. Further, the TGI came to 44.3 µM with SK-OV-3 ovarian; 33.8 µM in the test with HS 578T breast; 32.1 µM in the test on OVCAR-4 ovarian; 25.6 µM in the test on HOP-62 NSCLC; 23.8 µM in the test on UO-31 renal; 29.1 µM in the test on EKVX NSCLC. Further, the TGI with KM12 colon came to 26.2 µM; with SF-268 CNS, 41.8 µM; with SN12C renal, 25.4 µM.

On to `CCOc1ccccc1N=Nc1c(-c2ccccc2)nn(C(=O)CC(=O)Nc2cccc(C)c2)c1-c1ccccc1`, for which the TGI in the test on OVCAR-8 ovarian, in the test on SK-OV-3 ovarian, in the test with OVCAR-4 ovarian, in the test on HOP-62 NSCLC, in the test on UO-31 renal and in the test on EKVX NSCLC was more than 100 µM in each case. Further, the TGI in the test on KM12 colon, in the test with SF-268 CNS and with SN12C renal was more than 100 µM throughout.

Turning to `O=C(NCC1CCCO1)c1ccc(NC2=C(Cl)C(=O)N(Cc3ccccc3)C2=O)cc1` (stereo not drawn), the GI50 is 16.7 µM with OVCAR-8 ovarian; 18.6 µM in the test on SK-OV-3 ovarian; 22.1 µM with HS 578T breast; 19.2 µM in the test on OVCAR-4 ovarian; 2.67 µM with UO-31 renal; 20.4 µM in the test on EKVX NSCLC. The figures for the GI50 in the test on KM12 colon, in the test on SF-268 CNS and with SN12C renal were 17.1 µM, 13.2 µM and 0.0654 µM, respectively. Besides, the TGI with OVCAR-8 ovarian is 54.6 µM; in the test with SK-OV-3 ovarian, 36.6 µM; in the test on HS 578T breast, 65.3 µM; with OVCAR-4 ovarian it was 44.6 µM; with UO-31 renal it was 8.24 µM; with EKVX NSCLC, 37 µM. The TGI amounted to 35 µM in the test with KM12 colon, 45.4 µM in the test on SF-268 CNS and 7.32 µM in the test with SN12C renal.

As for `Nc1nc(/C=C\c2ccccc2)nc(N2CCN(c3ccccc3)CC2)n1`, the GI50 in the test with OVCAR-8 ovarian is 35.4 µM; in the test with HS 578T breast, 61.8 µM; with OVCAR-4 ovarian it was 37.2 µM; with HOP-62 NSCLC it was 23.9 µM; with UO-31 renal, 38.4 µM; in the test with EKVX NSCLC, 59.1 µM. For the same molecule, the GI50 in the test on KM12 colon was 27.2 µM; in the test with SF-268 CNS, 42.2 µM; in the test on SN12C renal it was 18.2 µM. The TGI was more than 100 µM in the test on OVCAR-8 ovarian; more than 100 µM in the test on HS 578T breast; more than 100 µM in the test with OVCAR-4 ovarian; 86.3 µM with HOP-62 NSCLC; more than 100 µM with UO-31 renal; more than 100 µM in the test with EKVX NSCLC. Further, the TGI in the test on KM12 colon was 60.6 µM; in the test with SF-268 CNS, more than 100 µM; in the test on SN12C renal, 38.6 µM.

On to `O=C(c1ccc(Cl)cc1)C(O)c1ccc(Cl)cc1` (stereo not drawn), for which the TGI in the test with OVCAR-8 ovarian, in the test with HS 578T breast, with OVCAR-4 ovarian, in the test with HOP-62 NSCLC, with UO-31 renal and in the test on EKVX NSCLC was more than 100 µM each time. Further, the TGI in the test on KM12 colon, in the test with SF-268 CNS and with SN12C renal was more than 100 µM each time.

On to `O=[N+]([O-])c1cc([N+](=O)[O-])c(Nn2c3ccccc3c3ccccc32)c([N+](=O)[O-])c1`, for which the GI50 is 0.371 µM in the test on OVCAR-8 ovarian; 0.366 µM in the test with HS 578T breast; 0.342 µM in the test on OVCAR-4 ovarian; 0.344 µM in the test on HOP-62 NSCLC; 0.245 µM in the test on UO-31 renal; 0.328 µM in the test with EKVX NSCLC. In addition, the GI50 with KM12 colon is 0.305 µM; in the test on SF-268 CNS, 0.359 µM; with SN12C renal, 0.322 µM. Moreover, the TGI with OVCAR-4 ovarian was more than 100 µM; with HOP-62 NSCLC, 6.11 µM and 2.07 µM; in the test on UO-31 renal, 6.63 µM and 0.916 µM; with EKVX NSCLC it was 7.64 µM; in the test with KM12 colon, 3.77 µM and 1.7 µM; with SF-268 CNS, 39 µM and > 100 µM. Besides, the TGI with SN12C renal was 9.42 µM and 6.72 µM.

On to `COc1ccc(OC)c(/C=N/N=C(\N)NO)c1`, for which the TGI in the test with OVCAR-8 ovarian was more than 100 µM; in the test on SK-OV-3 ovarian, more than 100 µM; in the test on OVCAR-4 ovarian it was more than 100 µM; with HOP-62 NSCLC, more than 100 µM; in the test on UO-31 renal, 60.3 µM; with EKVX NSCLC it was more than 100 µM. The TGI with KM12 colon, in the test on SF-268 CNS and in the test with SN12C renal was more than 100 µM throughout.
